Where “and” joins values, the source holds several entries; their conditions need not be identical. Identical values can stand only once.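 Step 1: Grow cells in 96-well plates. Step 2: Expose to compound for 48 hours at 5 concentrations. Step 3: Interpolate endpoints linearly; if unreached, use highest concentration. GI50: concentration for 50% inhibition of growth. TGI is the concentration that stops growth completely.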
How the values were obtained:
Test in all cases: NCI anticancer screen, dose series, 48 h
HOP-62 NSCLC = test system: HOP-62 NSCLC
MDA-MB-435 = test system: MDA-MB-435
NCI-H226 lung = test system: NCI-H226 lung
RPMI-8226 leukemia = test system: RPMI-8226 leukemia
RXF 393 renal = test system: RXF 393 renal
SF-268 CNS = test system: SF-268 CNS
SK-MEL-28 melanoma = test system: SK-MEL-28 melanoma
SK-MEL-5 melanoma = test system: SK-MEL-5 melanoma
TK-10 renal = test system: TK-10 renal
UACC-257 melanoma = test system: UACC-257 melanoma

SMILES	GI50 (HOP-62 NSCLC)	TGI (HOP-62 NSCLC)	GI50 (MDA-MB-435)	TGI (MDA-MB-435)	GI50 (NCI-H226 lung)	TGI (NCI-H226 lung)	GI50 (RPMI-8226 leukemia)	TGI (RPMI-8226 leukemia)	GI50 (RXF 393 renal)	TGI (RXF 393 renal)	GI50 (SF-268 CNS)	TGI (SF-268 CNS)	GI50 (SK-MEL-28 melanoma)	TGI (SK-MEL-28 melanoma)	GI50 (SK-MEL-5 melanoma)	TGI (SK-MEL-5 melanoma)	GI50 (TK-10 renal)	TGI (TK-10 renal)	GI50 (UACC-257 melanoma)	TGI (UACC-257 melanoma)
CSc1nc2c(c(=O)n1C)C(c1ccccc1)C1=C(N2)/C(=C/c2ccccc2)CCC1 (stereo not given)	20 µM	> 100 µM	3.99 µM	> 100 µM	18.4 µM	> 100 µM	5.31 µM	> 100 µM	2.35 µM	6.21 µM	10.7 µM	> 100 µM	> 100 µM	> 100 µM	3.58 µM	> 100 µM	20.9 µM	> 100 µM	6.63 µM	> 100 µM
CNC(=O)c1cc(Oc2ccc(NC(=O)Nc3cc(C(C)(C)C)nn3-c3ccc4ncccc4c3)c(F)c2)ccn1	2.24 µM and 2.2 µM	7.56 µM and 7.34 µM	0.587 µM and 0.387 µM	3.87 µM and 1.75 µM	0.272 µM and 0.822 µM	7.24 µM and 4.26 µM	2.4 µM and 2.5 µM	6.51 µM and 5.91 µM	0.821 µM and 0.647 µM	2.61 µM and 2.05 µM	1.41 µM and 1.52 µM	5.16 µM and 4.49 µM	0.264 µM and 0.297 µM	2.62 µM and 2.8 µM	1.35 µM and 1.51 µM	2.86 µM and 3.14 µM	1.83 µM and 1.7 µM	6.79 µM and 6.93 µM	0.477 µM and 0.44 µM	5.56 µM and 3.72 µM
S=C(SSC(=S)N1CCCCC1)N1CCCCC1	28.4 µM	> 100 µM	22 µM	> 100 µM	34.6 µM	> 100 µM	12.9 µM	40.2 µM	14.2 µM	35.8 µM	17.4 µM	41.6 µM	18.9 µM	69.3 µM	4.34 µM	59.8 µM	22.9 µM	82.2 µM	23.6 µM	82.9 µM
O=C1/C(=C/c2ccc([N+](=O)[O-])o2)Oc2ccc(Cl)cc21	4.53 µM	23.9 µM	1.99 µM	4.5 µM	1.78 µM	3.97 µM	1.37 µM	4.72 µM	1.65 µM	3.6 µM	1.84 µM	3.77 µM	1.71 µM	3.38 µM	1.58 µM	3.03 µM	2.14 µM	3.85 µM	1.85 µM	4.12 µM
Cc1cc(N(CCNc2ccnc3cc(Cl)ccc23)Cc2ccc3c(c2)OCO3)nc(N2CCCC2)n1	1.86 µM	10.2 µM	1.62 µM	3.18 µM	2.46 µM	6.86 µM	1.47 µM	3.99 µM	1.28 µM	2.74 µM	2.2 µM	7.16 µM	1.68 µM	3.2 µM	1.76 µM	3.21 µM	1.74 µM	3.8 µM	1.64 µM	3.24 µM
Cc1cc(N2CCOCC2)nc(NCc2cc(Nc3ccnc4cc(Cl)ccc34)ccc2F)n1	1.51 µM	2.96 µM	1.56 µM	2.92 µM	2.06 µM	4.31 µM	2.32 µM	5.96 µM	1.63 µM	3.37 µM	1.42 µM	3.02 µM	1.83 µM	3.4 µM	1.56 µM	2.94 µM	1.84 µM	3.4 µM	1.85 µM	3.54 µM
CC1=C[C@@H]2c3c(c(O)c(O)c4oc5cc(O)cc(O)c5c(=O)c34)[C@@H](c3cc(O)c(O)c4oc5cc(O)cc(O)c5c(=O)c34)[C@@H]2C(C)(C)C1	3 µM	14.5 µM	3.49 µM	13.7 µM	3.82 µM	28.4 µM	1.96 µM	10.3 µM	5.69 µM	17.3 µM	3.25 µM	16.1 µM	5.64 µM	18.7 µM	2.56 µM	10.5 µM	5.85 µM	19.2 µM	9.65 µM	24.5 µM
Cc1c(-c2ccccn2)ccc2ccccc12	–	> 100 µM	–	> 100 µM	–	> 100 µM	–	44.1 µM	–	93.2 µM	–	> 100 µM	–	> 100 µM	–	> 100 µM	–	> 100 µM	–	> 100 µM
COc1ccc2c(c1)-c1c(c3cc(OC)ccc3n(CCN(C)C)c1=O)C2=O	0.676 µM	12.1 µM	0.95 µM	5.73 µM	0.665 µM	10.4 µM	0.445 µM	1.97 µM	1.59 µM	7.23 µM	0.362 µM	6.21 µM	2.59 µM	8.73 µM	2.6 µM	8.92 µM	1.65 µM	6.98 µM	1.3 µM	4.78 µM
COC(=O)CC1=C(C)/C(=C/c2[nH]c(-c3ccc[nH]3)cc2OC)N=C1C	0.192 µM	1.12 µM	0.311 µM	1.95 µM	0.068 µM	0.881 µM	0.0449 µM	0.499 µM	0.0611 µM	1.08 µM	0.388 µM	10.9 µM	0.456 µM	2.53 µM	0.0461 µM	0.107 µM	0.214 µM	3.41 µM	0.282 µM	1.12 µM
C=C(C)C(=O)Nc1ccc(-c2c(-c3ccc(Oc4nccc(C)n4)c(F)c3)c3c(N)ncnc3n2C)cc1	4.69 µM	20 µM	7.19 µM	21.3 µM	0.812 µM	7.46 µM	2.74 µM	17.3 µM	0.0946 µM	0.984 µM	1.67 µM	16 µM	4.38 µM	17.6 µM	2.36 µM	8.21 µM	4.98 µM	30 µM	9.27 µM	23.6 µM
COC(=O)c1cc2cc(/C=C3/SC(=S)N(N(C(C)=O)C(C)=O)C3=O)oc2n1Cc1ccccc1	2.67 µM	14.1 µM	29 µM	> 100 µM	21.9 µM	45.2 µM	29.4 µM	> 100 µM	22 µM	56.7 µM	48.2 µM	> 100 µM	38.4 µM	> 100 µM	25.7 µM	62.7 µM	17.4 µM	35.1 µM	25 µM	74.9 µM
NS(=O)(=O)c1ccc(N=Nc2c[nH]c(=O)c(O)c2)cc1	–	> 100 µM	–	> 100 µM	–	> 100 µM	–	> 100 µM	–	> 100 µM	–	> 100 µM	–	> 100 µM	–	> 100 µM	–	> 100 µM	–	> 100 µM

From PubChem BioAssay (NCI)
